Among the data in US8921373B2, “Compounds having TRPV1 antagonistic activity and uses thereof” (Shionogi & Co., Ltd., priority 2010, dated 2014) are IC50 values, retold here.

Molecules are shown by their SMILES. Where two headings read alike, the source gives them in different places.

The target of this experiment is human recombinant TRPV1 (Homo sapiens (Human), UniProt Q8NER1). Put plainly: TRPV1 pH-Based Assay (Protocol 2, Ca2+ response in TRPV1/CHO cells, Fura-2). The experiment is classed as cell-based. The method, then:
For Protocol 2, a Chinese Hamster Ovary cell line (CHO) that has been engineered to constitutively express human recombinant TRPV1 was used (TRPV1/CHO cells). The TRPV1/CHO cell line was generated as described below.
TRPV1/CHO cells were seeded in the 96-well clear-bottom black-wall plate (Nunc) at densities of 1-2×10^4 cells/well and grown in 100 μL of culture medium (alpha-MEM supplemented with 10% FBS, 20 mM HEPES, 1 mg/mL geneticin and 1% antibiotic-antimycotic mixed stock solution) for 1-2 days before the experiment.
(2) The 96-well plate was incubated at 37° C. for 45 min.
(3) The loading buffer was removed from each well. […] The wells were then refilled with 80 μL of measuring buffer.
(4) After an incubation at 4° C. for 15 min, the 96-well plate was transferred to FDSS-3000 (Hamamatsu Photonics, Japan).
(5) The Fura-2 fluorescent intensity was monitored at a wavelength of 340 nm and at 380 nm, respectively, at a rate of 0.5 Hz for a total of 240 seconds. After 16 time points (32 sec) of baseline detection, 20 μL of agonist solution was added to each well. The final volume was 100 μL/well.
(6) Fluorescence intensity ratio refers to the fluorescence intensity at 340 nm over the fluorescence intensity at 380 nm at a particular time point. The baseline was set as the average of the fluorescent intensity ratios for the first 16 time points before the addition of agonist solution. The maximum response was the highest fluorescent intensity ratio during the 60 time points following addition of agonist solution.
(7) Maximal signal ratios from each well were calculated as output data using the FDSS-3000 analysis program. Data were analyzed using Excel (Microsoft) and XLfit (idbs) software.
Two different agonist solutions with different H2SO4 concentrations were used for the pH assay (FIG. 3A). For one half of a 96-well plate one agonist solution was used, for the other half the other agonist solution. The agonist solutions were obtained by diluting sulfuric acid (H2SO4, 1M) with measuring buffer. The concentrations for the two agonist solutions were determined as described above in Section 2 of Protocol 2.
The sulfuric acid concentrations between the two agonist solutions differed by 0.5 mM. […] After 1:4 dilution of the agonist solutions, the final sulfuric acid concentration was 3.2 mM and 3.3 mM, respectively. The resulting pH value for the pH assay was 5.0 to 5.1.
Test compounds were dissolved in DMSO to yield 1 mM stock solutions. […] The thereby-obtained solutions were further diluted in measuring buffer (1:100) as 10× stock serial dilutions with a DMSO concentration of 1%. 10 μL of a 10× stock was added into each well at step 3.3.(4) of Protocol 2.
Steps (1) and (2) of this Assay were the same as steps 2.2.(1) and 2.2.(2) of Protocol 2, respectively.
(3) The cells were washed twice with 150 μL of measuring buffer (mentioned in 2.2.(3) of Protocol 2, no probenecid). The wells were subsequently refilled with 70 μL of measuring buffer.
(4) Either 10 μl of measuring buffer or 10 μL of 10× stock serial dilution of test compound (described in 3.2. above) were applied to each well. Usually, only one test compound was tested per 96-well plate. The number of replicates per 96-well plate for a particular antagonist at a particular concentration was 7×2 since two different sulfuric acid concentrations were used per 96-well plate (N=7×2) (FIG. 3).
Step (5) was the same as 2.2.(4) above.
(6) Fura-2 fluorescent intensity was monitored as described in 2.2.(5) above. After 16 time points of baseline detection, 20 μL of agonist solution (measuring buffer titrated with H2SO4 to yield pH 5.0-5.1 when mixed 1:4 with the measuring buffer containing test compound) was added to each well (final volume 100 μL/well).
Steps (7) and (8) were as described in 2.2.(6) and 2.2.(7) above, respectively.
(1) The pH values of the buffer in the wells of A1→H1 and A7→H7 (longitudinally; FIG. 3) were measured one by one using a portable pH meter.

The mark [1] stands for this setting: TRPV1/CHO cells, pH 5.0-5.1, read-out: IC50 value by the pH-Based Assay.
Where [2] appears, read: TRPV1/CHO cells, pH 5.0-5.1, comparative compounds without the substituted alkyl group, read-out: TRPV1 IC50 Potency (pH-Based Assay), Comparative compound IC50.

human recombinant TRPV1, sequence (Q8NER1 whole entry): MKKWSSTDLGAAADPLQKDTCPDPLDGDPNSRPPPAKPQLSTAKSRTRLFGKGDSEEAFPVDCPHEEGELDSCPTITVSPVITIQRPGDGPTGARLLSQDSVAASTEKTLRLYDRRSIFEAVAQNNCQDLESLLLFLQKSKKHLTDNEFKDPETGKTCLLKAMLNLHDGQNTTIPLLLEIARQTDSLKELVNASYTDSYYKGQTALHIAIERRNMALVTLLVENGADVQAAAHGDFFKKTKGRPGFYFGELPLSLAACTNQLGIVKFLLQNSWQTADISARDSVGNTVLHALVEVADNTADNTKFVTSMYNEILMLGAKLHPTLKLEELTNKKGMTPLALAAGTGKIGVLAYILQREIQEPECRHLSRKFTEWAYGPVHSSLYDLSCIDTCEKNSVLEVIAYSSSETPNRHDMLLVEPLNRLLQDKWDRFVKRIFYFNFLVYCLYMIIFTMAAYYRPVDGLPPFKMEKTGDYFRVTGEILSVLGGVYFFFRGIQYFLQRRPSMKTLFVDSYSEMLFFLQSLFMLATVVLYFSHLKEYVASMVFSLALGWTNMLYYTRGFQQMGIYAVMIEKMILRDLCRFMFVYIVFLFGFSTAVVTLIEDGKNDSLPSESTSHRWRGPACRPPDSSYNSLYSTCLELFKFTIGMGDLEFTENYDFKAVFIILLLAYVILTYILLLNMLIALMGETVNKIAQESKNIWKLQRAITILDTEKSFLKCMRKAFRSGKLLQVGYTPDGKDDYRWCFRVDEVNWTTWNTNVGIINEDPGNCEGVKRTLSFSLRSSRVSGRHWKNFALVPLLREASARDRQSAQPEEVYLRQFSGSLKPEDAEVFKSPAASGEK

The IC50 is the concentration that inhibits the measured activity by half. With `Cc1cc(NC(=O)N2CC=C(c3ncc(C(F)(F)[C@@H](O)CO)cc3Cl)CC2)ccc1C(F)(F)F` [ADC, (S)-4-(3-chloro-5-(1,1-difluoro-2,3-dihydroxypropyl)pyridin-2-yl)-N-(3-methyl-4-(trifluoromethyl)phenyl)-5,6-dihydropyridine-1(2H)-carboxamide], the half-maximal inhibitory concentration (IC50) under setting [1] is ≤ 50 nM.

Take `O=C(Nc1nc2ccccc2s1)N1CCN(c2ncc(C[C@H](O)CO)cc2Cl)CC1` [ADS]: under setting [1], the IC50 is ≤ 50 nM.

In the case of `C[C@H]1CN(c2ncc(C[C@@H](O)CO)cc2F)CCN1C(=O)Nc1nc2ccc(F)cc2s1` [AEJ], the half-inhibitory concentration (IC50) under setting [1] was ≤ 50 nM.

For `C[C@H]1CN(c2ncc(C[C@H](O)CO)cc2F)CCN1C(=O)Nc1nc2ccc(F)cc2s1` [AEL], under setting [1], the concentration for half-maximal inhibition (IC50) was ≤ 50 nM.

As to `Cc1cc2nc(NC(=O)N3CCN(c4ncc(C[C@@H](O)CO)cc4F)C[C@@H]3C)sc2cc1C` [AET], the half-maximal inhibitory concentration (IC50) under setting [1] is ≤ 50 nM.

Consider `Cc1cc2nc(NC(=O)N3CCN(c4ncc(C[C@H](O)CO)cc4F)C[C@@H]3C)sc2cc1C` [AEU], for which the IC50 under setting [1] was ≤ 50 nM.

On to `C[C@H]1CN(c2ncc(C[C@H](O)CO)cc2F)CCN1C(=O)Nc1nc2cc(F)c(F)cc2s1` [AEZ], for which the IC50 under setting [1] was ≤ 50 nM.

Regarding `O=C(Nc1nc2cc(F)c(F)cc2s1)N1CCN(c2ncc(C[C@@H](O)CO)cc2F)CC1` [AFA], the IC50 was ≤ 50 nM.

Regarding `C[C@H]1CN(C(=O)Nc2nc3ccc(F)cc3s2)CCN1c1ncc(C[C@H](O)CO)cc1F` [AFM, (S)-4-(5-((S)-2,3-dihydroxypropyl)-3-fluoropyridin-2-yl)-N-(6-fluorobenzo[d]thiazol-2-yl)-3-methylpiperazine-1-carboxamide], the IC50 under setting [1] was ≤ 50 nM.

Regarding `Cc1ccc2nc(NC(=O)N3CCN(c4ncc(C[C@@H](O)CO)cc4F)[C@@H](C)C3)sc2c1` [AFO, (S)-4-(5-((R)-2,3-dihydroxypropyl)-3-fluoropyridin-2-yl)-3-methyl-N-(6-methylbenzo[d]thiazol-2-yl)piperazine-1-carboxamide], the half-inhibitory concentration (IC50) under setting [1] is ≤ 50 nM.

Take `Cc1ccc2nc(NC(=O)N3CCN(c4ncc(C[C@H](O)CO)cc4F)[C@@H](C)C3)sc2c1` [AFP, (S)-4-(5-((S)-2,3-dihydroxypropyl)-3-fluoropyridin-2-yl)-3-methyl-N-(6-methylbenzo[d]thiazol-2-yl)piperazine-1-carboxamide]: under setting [1], the IC50 is ≤ 50 nM.

`C[C@@H]1CN(c2ncc(C[C@H](O)CO)cc2F)C[C@H](C)N1C(=O)Nc1nc2ccc(F)cc2s1` [AFU]: the IC50 under setting [1] is ≤ 50 nM.

Take `C[C@H]1CN(C(=O)Nc2nc3cc(F)c(F)cc3s2)CCN1c1ncc(C[C@H](O)CO)cc1F` [AGL]: the half-maximal inhibitory concentration (IC50) under setting [1] was ≤ 50 nM.

As for `C[C@H]1CN(c2ncc(C[C@H](O)CO)cc2F)CCN1C(=O)Nc1nc2ccc(SC(F)(F)F)cc2s1` [AGR], under setting [1], the IC50 was ≤ 50 nM.

As to `C[C@H]1CN(c2ncc(C[C@@H](O)CO)cc2C(F)(F)F)CCN1C(=O)Nc1nc2ccccc2s1` [AGV], the IC50 under setting [1] was ≤ 50 nM.

With `C[C@@H]1CN(c2ncc(C[C@H](O)CO)cc2F)CCN1C(=O)Nc1nc2ccccc2s1` [AGX], the IC50 under setting [1] was ≤ 50 nM.

On to `O=C(Nc1nc2ccc(F)cc2s1)N1C2CCC1CN(c1ncc(C[C@H](O)CO)cc1F)C2` [AHB], for which the IC50 under setting [1] is ≤ 50 nM.

Regarding `O=C(Nc1ccc(C(F)(F)F)c(Cl)c1)N1CC=C(c2ncccc2Cl)CC1` [drawing 478, reference compound], the concentration for half-maximal inhibition (IC50) under setting [2] was determined as 139 nM.

For the compound `O=C(Nc1ccc(C(F)(F)F)c(Cl)c1)N1CC=C(c2ncccc2Cl)CC1` [drawing 493, reference compound], the IC50 under setting [2] is 77 nM.

Turning to `C[C@@H]1CN(c2ncccc2Cl)CCN1C(=O)Nc1nc2ccc(F)cc2s1` [reference compound], under setting [2], the IC50 came to 24 nM.

As to `O=C(Nc1nc2ccc(F)cc2s1)N1CC=C(c2ncccc2Cl)CC1` [reference compound], under setting [2], the IC50 worked out at 943 nM.
